Experimental data published in patent publication US20220146526A1, “METHOD FOR EVALUATING SAMPLE, ANALYSIS METHOD, METHOD FOR DETECTING DEGRADED SAMPLE, MARKER FOR DETECTING DEGRADED BLOOD PLASMA SAMPLE, AND MARKER FOR DETECTING DEGRADED SERUM SAMPLE” (SHIMADZU CORPORATION, priority 2019, published 2022).

Tests used:
Assay type in all cases: physicochemical, human
[1] = GC/MS of blood plasma sample: time from blood collection to centrifugation (Table A); conditions: for Rate of increase or decrease: detection intensity relative to 1 at 15 minutes; for Rate of increase or decrease / Increase or decrease: blood collection to centrifugation; for Rate of increase or decrease / Rate of increase or decrease (second value, decrease) / Rate of increase or decrease (first value, increase): after 4 hours; for Increase or decrease: detection intensity, after 4 hours vs 15 minutes; for Rate of increase or decrease (second value, decrease) / Rate of increase or decrease (first value, increase): different from individual to individual, relative to 1 at 15 minutes, collection to centrifugation; for Rate of increase or decrease (second value, decrease): individuals with decrease; for Rate of increase or decrease (first value, increase): individuals with increase
Summary of the method: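 Read-out is MRM detection intensity by electron-ionization GC/MS on a BPX5 column after methoxymation and trimethylsilylation, expressed relative to a 15-minute collection-to-centrifugation interval. Plasma was prepared from EDTA blood held at 4° C and spun at 4° C, 3000 rpm for 15 minutes, then frozen.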

[2] = GC/MS of blood plasma sample: time from blood collection to cooling of blood (Table B); parameters: key to Rate of increase or decrease / Rate of increase or decrease (first value, increase): detection intensity relative to 1 at cooling time ≤1 min; conditions: for Rate of increase or decrease: detection intensity relative to 1 at 1 minute or less, blood collection to cooling 5 minutes; for Increase or decrease: detection intensity, blood collection to cooling 5 minutes or more vs 1 minute or less; for Rate of increase or decrease (second value, decrease) / Rate of increase or decrease (first value, increase): different from individual to individual, relative to 1 at 1 minute or less, collection to cooling 5 minutes; for Rate of increase or decrease (second value, decrease): individuals with decrease; for Rate of increase or decrease (first value, increase): individuals with increase
Experimental: At room temperature, 5 mL of blood from a healthy subject was taken into a blood-collecting vessel containing EDTA, and the blood-collecting vessel was inverted for mixing, then cooled, and allowed to stand at 4° C. Here, in order to investigate how the detection intensity of molecules contained in the sample was affected in a case where the time to cooling was set to 5 minutes or more as compared to that in a case where the time to cooling was set to 1 minute or less, preparations were performed under both the former condition and the latter condition. After standing, the blood sample was subjected to centrifugation under a condition of 4° C., 3000 rpm, and 15 minutes. […] After centrifugation, the blood-collecting vessel was left to stand at room temperature for 30 minutes, and the blood plasma was isolated during this 30 minutes. The obtained blood plasma sample was frozen and stored. Here, in order to investigate how the detection intensity of molecules contained in the sample was affected in cases where freezing and thawing was performed 4 times, 6 times, and 10 times after freezing as compared to that in a case where freezing and thawing was performed 2 times after freezing, freezing and thawing was performed under the respective conditions of 2, 4, 6, and 10 times.
Frozen blood plasma samples and serum samples were subjected to GC/MS or LC/MS. In GC/MS, the blood plasma samples and serum samples were subjected to methoxymation and trimethylsilylation and then introduced to GC-MS.
GC/MS was conducted using GCMS·TQ8040 (Shimadzu Corporation) that was a GC·MS equipped with AOC·20i (Shimadzu Corporation) as an autosampler.
Column: BPX5 (inner diameter of 0.25 mm, length of 30 m, and film thickness of 0.25 μm) (SGE)
Column temperature: maintained at 60° C. for 2 minutes, then raised at 15° C./min, and maintained at 330° C. for 3 minutes.
Inlet temperature: 250° C.
Carrier gas control mode: constant linear velocity of 39.0 cm/sec
Sample introduction method: split (split ratio of 30:1) Injection volume: 1 μL
Ionization method: electron ionization
Ionization current: 60 μA
Interface temperature: 280° C.
Ion source temperature: 200° C.
Mode: multiple reaction monitoring (MRM)
Table B presents compounds of which the detection intensity increased or decreased by 30% or more in a case where the time from blood collection to cooling of blood, when a blood plasma sample was analyzed by GC/MS, was set to 5 minutes or more as compared to that in a case where the time was set to 1 minute or less. The rate of increase or decrease in Table B is the value of detection intensity relative to 1 that is the detection intensity in a case where the time from blood collection to cooling is set to 1 minute or less.

[3] = GC/MS of blood plasma sample: number of times of freezing and thawing (Table C); conditions: for Increase or decrease: detection intensity; for Rate of increase or decrease (second value, decrease) / Rate of increase or decrease (first value, increase): different from individual to individual, relative to 1 at 2 times; for Rate of increase or decrease (second value, decrease): individuals with decrease; for Rate of increase or decrease (first value, increase): individuals with increase; for Rate of increase or decrease: detection intensity relative to 1 at 2 times
Summary of the method: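 Values express detection intensity as a ratio to the 2-cycle freeze-thaw sample (=1), compared with 4, 6 and 10 cycles. Healthy-donor EDTA plasma, cooled at ≤1 min or ≥5 min, spun at 4 °C, 3000 rpm, 15 min. Derivatised by methoxymation/trimethylsilylation; GC-MS/MS in MRM mode with electron ionization.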

[4] = GC/MS of serum sample: time from blood collection to centrifugation (Table G); conditions: blood collection to centrifugation; for Rate of increase or decrease: detection intensity relative to 1 at 15 minutes; for Increase or decrease: detection intensity
Summary of the method: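 Values express detection intensity as a ratio to the sample centrifuged 15 minutes after blood collection (taken as 1). Serum was derivatized by methoxymation and trimethylsilylation, then analysed by electron-ionization GC/MS using multiple reaction monitoring on a BPX5 column ramped from 60 to 330° C.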

[5] = GC/MS of serum sample: time from centrifugation to isolation (Table H); parameters: key to Rate of increase or decrease / Rate of increase or decrease (first value, increase): detection intensity relative to 1 at 30 min centrifugation-to-isolation; conditions: for Rate of increase or decrease: detection intensity relative to 1 at 30 minutes, after 1 hour; for Increase or decrease: detection intensity, after 1 hour vs 30 minutes
Summary of the method: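 Values are GC/MS (EI, MRM) detection intensities of methoxymated/trimethylsilylated serum, normalised to 1 for the 30-min sample. Serum was isolated 30 min, 1 h or 6 h after room-temperature centrifugation (3500 rpm, 5 min) of blood.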

[6] = GC/MS of serum sample: number of times of freezing and thawing (Table I); parameters: key to Rate of increase or decrease / Rate of increase or decrease (first value, increase): detection intensity relative to 2 freeze-thaw cycles = 1; conditions: for Rate of increase or decrease: detection intensity relative to 1 at 2 times; for Number of times when compound is affected: detection intensity changed by 30% or more vs 2 times of freezing and thawing
Summary of the method: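 Detection intensities are ratios to the value after two freeze–thaw cycles, which is set as 1, compared against 4, 6 and 10 cycles. Analysis used methoxymation and trimethylsilylation derivatization, then GC/MS with EI ionization and multiple reaction monitoring on a BPX5 column. Serum came from blood held at room temperature and spun at 3500 rpm for 5 min.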

[7] = freezing and thawing 4 times vs 2 times
[8] = serum, GC/MS, freezing and thawing 4 times
[9] = detection intensity, serum, GC/MS, freezing and thawing 4 times vs 2 times
[10] = 10 times of freezing and thawing
[11] = serum sample, GC/MS, detection intensity vs 2 times of freezing and thawing
[12] = freezing and thawing 6 times vs 2 times

Row | Structure (SMILES) | Rate of increase or decrease [1] | Increase or decrease [1] | Rate of increase or decrease [2] | Increase or decrease [2] | Increase or decrease [3, 7] | Rate of increase or decrease (second value, decrease) ([3]; freezing and thawing 4 times) | Rate of increase or decrease (first value, increase) ([3]; freezing and thawing 4 times) | Rate of increase or decrease [5] | Increase or decrease [5] | Rate of increase or decrease [6, 8] | Increase or decrease [6, 9] | Rate of increase or decrease ([4]; after 4 hours) | Increase or decrease ([4]; after 4 hours vs 15 minutes) | Rate of increase or decrease (second value, decrease) [1] | Rate of increase or decrease (first value, increase) [1] | further results
1 | O[C@@H]1[C@@H](O)[C@@H]2OC[C@@H](O2)[C@H]1O [1,6-Anhydroglucose] | 1.42 | Increase | 0.62 | Decrease | Different from individual | 0.42 | 3.49 | 2.25 | Increase | 2.25 | Increase | – | – | – | – | Rate of increase or decrease ([4]; after 8 hours): 0.62; Increase or decrease ([4]; after 8 hours vs 15 minutes): Decrease
2 | Oc1ccccn1 [2-Hydroxypyridine] | 0.57 | Decrease | 0.59 | Decrease | Different from individual | 0.54 | 2.48 | 1.44 | Increase | 0.50 | Decrease | 2.55 | Increase | – | – | –
3 | O=P(O)(O)OCC(O)CO (stereo not shown) [Glycerol-3-phosphate] | – | Different from individual | – | Increase | – | – | – | – | – | – | – | 1.39 | Increase | 0.32 | 4.90 | Rate of increase or decrease ([3]; freezing and thawing 6 times): 0.41; Increase or decrease [3, 12]: Decrease
4 | OC[C@@H](O)[C@@H](O[C@@H]1O[C@H](CO)[C@H](O)[C@H](O)[C@H]1O)[C@H](O)[C@@H](O)CO [Lactitol] | – | Different from individual | 0.67 | Decrease | – | – | – | 1.60 | Increase | – | – | 3.20 | Increase | 0.22 | 3.36 | Rate of increase or decrease ([3]; freezing and thawing 10 times): 1.73; Increase or decrease ([3]; freezing and thawing 10 times vs 2 times): Increase

Continued, in another order:

Row | Rate of increase or decrease [1] | Increase or decrease [1] | Rate of increase or decrease [2] | Increase or decrease [2] | Increase or decrease [3, 7] | Rate of increase or decrease (second value, decrease) ([3]; freezing and thawing 4 times) | Rate of increase or decrease (first value, increase) ([3]; freezing and thawing 4 times) | Rate of increase or decrease [5] | Increase or decrease [5] | Rate of increase or decrease [6, 8] | Increase or decrease [6, 9] | Rate of increase or decrease ([4]; after 4 hours) | Increase or decrease ([4]; after 4 hours vs 15 minutes) | Rate of increase or decrease (second value, decrease) [1] | Rate of increase or decrease (first value, increase) [1] | Structure (SMILES) | further results
5 | – | Different from individual | 0.61 | Decrease | Different from individual | 0.58 | 1.59 | 3.07 | Increase | 0.47 | Decrease | 1.91 | Increase | 0.32 | 1.88 | N[C@@H](CS(=O)O)C(=O)O [3-Sulfinoalanine] | –
6 | 2.03 | Increase | 0.67 | Decrease | Different from individual | 0.66 | 1.45 | 1.71 | Increase | – | – | 0.51 | Decrease | – | – | O=C(O)CCCCCCCC(=O)O [Azelaic acid] | Rate of increase or decrease [6, 10]: 9.39; Number of times when compound is affected ([6]; serum sample, GC/MS): 10 times; Increase or decrease [6, 11]: Increase
7 | – | Different from individual | – | Different from individual | – | – | – | 1.69 | Increase | – | – | – | – | 0.66 | 1.69 | CC(=O)N[C@@H](CO)C(=O)O [N-acetylserine] | Rate of increase or decrease (second value, decrease) [2]: 0.69; Rate of increase or decrease (first value, increase) [2]: 1.64; Increase or decrease [3, 12]: Different from individual; Rate of increase or decrease (second value, decrease) ([3]; freezing and thawing 6 times): 0.69; Rate of increase or decrease (first value, increase) ([3]; freezing and thawing 6 times): 1.39; Rate of increase or decrease ([4]; after 12 hours): 1.44; Increase or decrease ([4]; after 12 hours vs 15 minutes): Increase
8 | 2.24 | Increase | – | Different from individual | Different from individual | 0.68 | 1.70 | – | – | – | – | – | – | – | – | O=C(O)c1cccnc1C(=O)O [Quinolinic acid] | Rate of increase or decrease (second value, decrease) [2]: 0.41; Rate of increase or decrease (first value, increase) [2]: 1.67
9 | – | Different from individual | 1.96 | Increase | Increase | – | – | – | – | – | – | – | – | 0.66 | 4.41 | O=C(CO)[C@H](O)[C@H](O)CO [Ribulose] | Rate of increase or decrease ([3]; freezing and thawing 4 times): 1.38; Rate of increase or decrease ([4]; after 8 hours): 1.72; Increase or decrease ([4]; after 8 hours vs 15 minutes): Increase; Rate of increase or decrease [6, 10]: 0.68; Number of times when compound is affected ([6]; serum sample, GC/MS): 10 times; Increase or decrease [6, 11]: Decrease
